Where two headings read alike, the source gives them in different places.
How the values were obtained:
[1] = Primary crystallization screen: XRPD before and after drying at 40° C.; format: physicochemical; set-up: key to XRPD Pattern Post-Thermal Cycling / XRPD Pattern Anti-Solvent Addition / XRPD Pattern Evaporation / XRPD Pattern Post-Thermal Cycling (dried): 1—Free base Pattern 1; 2—Free base Pattern 2; 3—Free base Pattern 3; 4—Free base Pattern 4; S—Potential Salt Pattern 1; A—Amorphous; C—Counterion present; *—Poorly crystalline; t—Results obtained from temperature cycling; e—Results obtained from evaporation
Procedure: • 34×40 mg of Compound A was weighed into vials before the selected solvents were added to prepare slurries, where possible. See Table 29 for a list of solvent systems used and the volume of solvent used. • Stirrer bars were added to the vials, before the vials were sealed and temperature cycled with stirring between 5° C. and 40° C. The heating rate was 0.1° C./min and the samples were held at 5° C. and 40° C. for 2 hours. • After temperature cycling for 4 days, observations were made (see Table 29). Slurries were centrifuge filtered and the solids were analyzed by XRPD • The solids were dried at 40° C. for approximately 18 h before being re-analyzed by XRPD. • Saturated solutions were then split into 3 vials for the following experiments • Evaporation at ambient temperature • Cooling (5° C.). • Where no solids were obtained after 72 hours, the samples were moved to the freezer at −20° C. for further cooling. • Where no solids were obtained from further cooling, the samples were allowed to evaporate at ambient temperature. • Anti-solvent addition at ambient temperature. • Where no solids were obtained after 72 hours the samples were moved to the freezer at −20° C. to encourage crystallization. • Where no solids were obtained from cooling, the samples were allowed to evaporate at ambient temperature.

[2] = Solvent solubility screen of Compound A (aliquot addition, HPLC of saturated solutions); format: physicochemical; conditions: organic solvent or mixture
Procedure: A known volume aliquot (typically 5 volumes) of solvent was added to approximately 5 mg of Compound A. See Table 14 for the selected solvents for the solvent solubility screen.
Between each addition, the mixture was checked for dissolution and where no dissolution was apparent, the mixture was heated to ca. 40° C. and checked again. This procedure was continued until dissolution was observed or until 100 volumes of solvent had been added.
Where dissolution was not observed, solids were isolated centrifugally and analyzed by XRPD. The saturated solutions were analyzed by HPLC to obtain the solubility.

[3] = Acetonitrile:Water (75:25% v/v)
[4] = Dichloromethane:Methanol (50:50% v/v)
[5] = Dichloromethane:Methanol (75:25% v/v)

COc1cc(O[C@H]2C(C)(C)[C@H](NC(=O)c3ccc(N4CCC(CN5CCN(c6ccc(C(=O)N[C@H]7CCC(=O)NC7=O)c(F)c6)CC5)CC4)cc3)C2(C)C)ccc1C#N [Compound A, 4-(4-((1-(4-(((1R,3R)-3-(4-cyano-3-methoxyphenoxy)-2,2,4,4-tetramethylcyclobutyl)carbamoyl)phenyl)piperidin-4-yl)methyl)piperazin-1-yl)-N—((S)-2,6-dioxopiperidin-3-yl)-2-fluorobenzamide]
XRPD Pattern Anti-Solvent Addition ([1]; 1,4-Dioxane): A
XRPD Pattern Cooling ([1]; 1,4-Dioxane): A e
XRPD Pattern Evaporation ([1]; 1,4-Dioxane): A x
XRPD Pattern Post-Thermal Cycling ([1]; 1,4-Dioxane): A
XRPD Pattern Post-Thermal Cycling (dried) ([1]; 1,4-Dioxane): A *
XRPD Pattern Evaporation ([1]; 1-Propanol): A
XRPD Pattern Evaporation ([1]; 2-Butanone (MEK)): 1
XRPD Pattern Evaporation ([1]; Acetone:Water (90:10% v/v)): 2
XRPD Pattern Anti-Solvent Addition ([1]; Acetonitrile): A x
XRPD Pattern Evaporation ([1]; Acetonitrile): A +
XRPD Pattern Post-Thermal Cycling ([1]; Acetonitrile): 1
XRPD Pattern Post-Thermal Cycling (dried) ([1]; Acetonitrile): 1
XRPD Pattern Evaporation [1, 3]: 6 (6—Free base Pattern 6)
XRPD Pattern Post-Thermal Cycling [1, 3]: 6 (6—Free base Pattern 6)
XRPD Pattern Post-Thermal Cycling (dried) [1, 3]: 6 (6—Free base Pattern 6)
XRPD Pattern Post-Thermal Cycling ([1]; Anisole): 5 (5—Free base Pattern 5)
XRPD Pattern Post-Thermal Cycling (dried) ([1]; Anisole): 8 (8—Free base Pattern 8)
XRPD Pattern Post-Thermal Cycling ([1]; Butyl acetate): 1
XRPD Pattern Post-Thermal Cycling (dried) ([1]; Butyl acetate): 1
XRPD Pattern Post-Thermal Cycling ([1]; Dichloromethane): 6 (6—Free base Pattern 6)
XRPD Pattern Post-Thermal Cycling (dried) ([1]; Dichloromethane): 6 (6—Free base Pattern 6)
XRPD Pattern Post-Thermal Cycling [1, 4]: 2
XRPD Pattern Post-Thermal Cycling (dried) [1, 4]: 2
XRPD Pattern Anti-Solvent Addition [1, 5]: A
XRPD Pattern Cooling [1, 5]: A e
XRPD Pattern Evaporation ([1]; Diethyl ether): A x
XRPD Pattern Evaporation ([1]; Ethanol): A x
XRPD Pattern Evaporation ([1]; Ethanol:Water (50:50% v/v)): A x
XRPD Pattern Post-Thermal Cycling ([1]; Ethyl acetate): 1
XRPD Pattern Post-Thermal Cycling (dried) ([1]; Ethyl acetate): 1
XRPD Pattern Evaporation ([1]; Isopropyl acetate): A x
XRPD Pattern Cooling ([1]; Methanol): A e
XRPD Pattern Evaporation ([1]; Methanol): A x
XRPD Pattern Evaporation ([1]; Methylisobutyl ketone): A x
XRPD Pattern Post-Thermal Cycling ([1]; Methylisobutyl ketone): 1
XRPD Pattern Post-Thermal Cycling (dried) ([1]; Methylisobutyl ketone): 1
XRPD Pattern Anti-Solvent Addition ([1]; N,N′-Dimethylacetamide): 1
XRPD Pattern Anti-Solvent Addition ([1]; N,N′-Dimethylformamide): 1
XRPD Pattern Cooling ([1]; N,N′-Dimethylformamide): A e
XRPD Pattern Evaporation ([1]; N,N′-Dimethylformamide): 1
XRPD Pattern Post-Thermal Cycling ([1]; Tetrahydrofuran): 1
XRPD Pattern Post-Thermal Cycling (dried) ([1]; Tetrahydrofuran): 1
XRPD Pattern Anti-Solvent Addition ([1]; Tetrahydrofuran:Water (98:2% v/v)): A
XRPD Pattern Post-Thermal Cycling ([1]; Toluene): 7 (7—Free base Pattern 7)
XRPD Pattern Post-Thermal Cycling (dried) ([1]; Toluene): 8 (8—Free base Pattern 8)
XRPD Pattern Post-Thermal Cycling ([1]; Water): A
XRPD Pattern Post-Thermal Cycling (dried) ([1]; Water): A
solubility ([2]; 1,4-dioxane, thermodynamic from solid, 1,4-Dioxane, read-out: Approximate Solubility): 100000 µg/mL
solubility ([2]; 1,4-dioxane, thermodynamic from solid, 1,4-Dioxane, read-out: Approximate solubility): ~100000 µg/mL
solubility ([2]; 1,4-dioxane, thermodynamic from solid, 1,4-dioxane, read-out: solubility): > 100000 µg/mL
solubility ([2]; 1-butanol, 40 °C, thermodynamic from solid, 1-Butanol, read-out: Approximate Solubility): 188 µg/mL
solubility ([2]; 1-propanol, 40 °C, thermodynamic from solid, 1-Propanol, read-out: Approximate Solubility): 232 µg/mL
solubility ([2]; 2-Butanone (MEK), 40 °C, thermodynamic from solid, 2-Butanone (MEK), read-out: Approximate Solubility): 2130 µg/mL
solubility ([2]; 2-Ethoxyethanol, 40 °C, thermodynamic from solid, 2-Ethoxyethanol, read-out: Approximate Solubility): 1550 µg/mL
solubility ([2]; 2-Methyl THF, 40 °C, thermodynamic from solid, 2-Methyl THF, read-out: Approximate Solubility): 2890 µg/mL
solubility ([2]; 2-Propanol, 40 °C, thermodynamic from solid, 2-Propanol, read-out: Approximate Solubility): 205 µg/mL
solubility ([2]; 2-propanol:water (90:10% v/v), 40 °C, thermodynamic from solid, 2-Propanol:Water (90:10% v/v), read-out: Approximate Solubility): 186 µg/mL
solubility ([2]; 3-Methyl-1-butanol, 40 °C, thermodynamic from solid, 3-Methyl-1-butanol, read-out: Approximate Solubility): 1220 µg/mL
solubility ([2]; Acetone, 40 °C, thermodynamic from solid, Acetone, read-out: Approximate Solubility): 2730 µg/mL
